In patent US10952999B2, “Inhibitor of cyclin-dependent kinase CDK9” (GENFLEET THERAPEUTICS (SHANGHAI) INC., priority 2017, dated 2021):

Key:
[1] = tested on: acute B cell leukemia cell line MEC-1; assay: Cancer cell growth, Cell Titer-Glo cell viability assay, 72 hours; type: cell-based; conditions: Homo sapiens, MEC1; MEC-1, 72 hours
In short: (§1)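 GI50 and IC50 come from a luminescent viability assay in which ATP content of living cells indicates viable cell number.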

[2] = tested on: acute B cell leukemia cell line MEC-2; assay: as above; type: cell-based; conditions: MEC2; MEC-2, 72 hours
In short: as §1

[3] = tested on: acute megakaryoblastic leukemia CMK; assay: as above; type: cell-based
In short: as §1

[4] = tested on: acute myeloid leukemia cell line MOLM13; assay: as above; type: cell-based; conditions: Homo sapiens; MOLM-13, 72 hours
In short: as §1

[5] = tested on: acute myeloid leukemia cell line MOLM14; assay: as above; type: cell-based; conditions: Homo sapiens; MOLM-14, 72 hours
In short: as §1

[6] = tested on: acute myeloid leukemia cell line MV4-11; assay: as above; type: cell-based; conditions: Homo sapiens; MV4-11, 72 hours
In short: as §1

[7] = tested on: acute myeloid leukemia cell line OCI-AML-2; assay: as above; type: cell-based; conditions: Homo sapiens; OCI-AML2, 72 hours
In short: as §1

[8] = tested on: acute promyelocytic leukemia cell line NB-4; assay: as above; type: cell-based; conditions: NB4, 72 hours
In short: as §1

[9] = tested on: hamster lung cell CHL; assay: as above; type: cell-based
In short: as §1

[10] = tested on: hamster ovary cell CHO; assay: as above; type: cell-based
In short: as §1

[11] = tested on: histiocytic lymphoma U-937; assay: as above; type: cell-based; conditions: Homo sapiens; U-937, 72 hours
In short: as §1

[12] = tested on: human breast cancer cell MCF-7; assay: as above; type: cell-based; conditions: MCF7, MCF-7, 72 hours
In short: as §1

[13] = tested on: human leukemia cell Nomo-1; assay: as above; type: cell-based; conditions: Homo sapiens; Nomo-1, 72 hours
In short: as §1

[14] = tested on: human lung adenocarcinoma cell H1395; assay: as above; type: cell-based; conditions: NCI-H1395, H1395, 72 hours
In short: as §1

[15] = tested on: human lung cancer cell H3122; assay: as above; type: cell-based; conditions: NCI-H3122, H3122, 72 hours
In short: as §1

[16] = tested on: human non-small cell lung cancer cell H1975; assay: as above; type: cell-based; conditions: NCI-H1975, H1975, 72 hours
In short: as §1

[17] = tested on: human non-small cell lung cancer cell HCC827; assay: as above; type: cell-based; conditions: HCC827, 72 hours
In short: as §1

[18] = tested on: human non-small cell lung cancer cell PC-9; assay: as above; type: cell-based; conditions: PC-9, 72 hours
In short: as §1

[19] = tested on: human small cell lung cancer cell H209; assay: as above; type: cell-based; conditions: NCI-H209, H209, 72 hours
In short: as §1

[20] = tested on: acute myelocytic leukemia cell line (AML) HL-60; assay: Effect on apoptosis, Western Blot of PARP and Caspase 3 shear; type: cell-based; conditions: HL-60, 0.01-0.1 μM, 24 hours
Excerpt: (§2) Western Blot was used to detect the effects of drugs in different concentrations on DNA repair enzyme polyadenylation diphosphate-ribose polymerase PARP and protein shear of cysteine-containing aspartate proteolytic enzyme Caspase 3 at different time intervals.

[21] = tested on: acute myelocytic leukemia cell line (AML) MV4-11; assay: as above; type: cell-based; conditions: MV4-11, 0.01-0.1 μM, 24 hours
Excerpt: as §2

[22] = tested on: acute myelocytic leukemia cell line (AML) OCI-AML-3; assay: as above; type: cell-based; conditions: OCI-AML-3, 0.01-0.1 μM, 24 hours
Excerpt: as §2

[23] = tested on: acute promyelocytic leukemia cell line NB-4; assay: as above; type: cell-based; conditions: NB-4, 0.01-0.1 μM, 24 hours
Excerpt: as §2

[24] = tested on: MV4-11 acute granulocyte leukemia cells; assay: Human acute granulocyte leukemia MV4-11 mouse model, subcutaneous tumor; type: in vivo, mice
Description: 24 Bal b/c female mice, 4-6 weeks, were purchased from Shanghai Slack Laboratory Animals Co., Ltd. and kept in SPF laboratory. The drinking water and padding were aseptically treated by autoclaving. All operations were carried out under aseptic conditions. On day 0, 5×10^6MV4-11 acute granulocyte leukemia cells (purchased from ATCC) were subcutaneously injected into the left side of all mice' back. Starting on day 15, all mice were divided into four groups (6 mice per group), methyl cellulose (HKI) solvent was orally administered to the first group of mice per day; compound 1 at a dose of 10 mg/kg mice body weight was orally administered to the second group of mice per day; compound 1 at a dose of 20 mg/kg mice body weight was orally administered to the third group of mice per day; compound 1 at a dose of 30 mg/kg mice body weight was orally administered to the fourth group of mice per day. From the start of administration, the length/width of the subcutaneous tumor was measured with a vernier caliper every day, and the body weight of the mouse was recorded every day, and the effect of compound 1 on the body weight of the mouse was observed. On day 43, the mice were sacrificed, subcutaneous tumors were taken out, and tumors were weighed and compared, and then a sample of protein lysate was prepared from the tumor sample tissue for use. The trend of subcutaneous tumor growth was counted within day 16 to day 43, and the tumor volume was calculated as: length×width×width/2 mm^3.

SMILES: COC[C@@H](C)N[C@H]1CC[C@H](Nc2cc(-c3csc(NCC4(C#N)CCOCC4)n3)c(Cl)cn2)CC1 [Compound 1, 4-(((4-(5-chloro-2-(((1R,4r)-4-(((R)-1-methoxypropyl-2-yl)amino)cyclohexyl)amino)pyridin-4-yl)thiazol-2-yl)amino)methyl)tetrahydro-2H-pyran-4-carbonitrile]
- GI50 [1]: 47 nM
- GI50 [2]: 25 nM
- GI50 [3]: 49 nM
- GI50 [4]: 25 nM
- GI50 [5]: 25 nM
- GI50 [6]: 14 nM
- GI50 [7]: 33 nM
- GI50 [8]: 35 nM
- inhibitory effect on normal cell CHL (in words) ([9]; CHL cells): no inhibitory effect
- GI50 ([9]; CHL, 72 hours): 1100 nM
- inhibitory effect on normal cell CHO (in words) ([10]; CHO cells): no inhibitory effect
- GI50 ([10]; CHO, 72 hours): 1600 nM
- GI50 [11]: 17 nM
- IC50 [12]: 6 nM
- GI50 [13]: 45 nM
- IC50 [14]: 120 nM
- IC50 [15]: 11 nM
- IC50 [16]: 42 nM
- IC50 [17]: 60 nM
- IC50 [18]: 90 nM
- IC50 [19]: 86 nM
- apoptosis (shear of PARP or Caspase 3) [20]: could cause apoptosis
- apoptosis (shear of PARP or Caspase 3) [21]: could cause apoptosis
- apoptosis (shear of PARP or Caspase 3) [22]: could cause apoptosis
- apoptosis (shear of PARP or Caspase 3) [23]: could cause apoptosis
- growth of subcutaneous tumors (in words) ([24]; 10, 20, 30 mg/kg orally per day, Bal b/c mice): effective in inhibiting the growth of subcutaneous tumors
- tumor growth inhibition (TGI) ([24]; high dose group (20, 30 mg/kg), orally per day, day 15 to day 43, Bal b/c mice): 98.7%
- weight of the subcutaneous tumor ([24]; low dose group (10 mg/kg), orally per day, Bal b/c mice): significantly reduced
